According to patent US4252898A:
In brackets after ≈: the same amount, converted by molar mass.

Columns and labels:
[1] = test system: Actinomyces israelii W855; test: Susceptibility of anaerobic bacterial isolates, agar dilution; format: cell-based; details: 27 hours incubation
[2] = test system: Clostridium perfringens 81; test: microbe, parasite or virus in culture; format: cell-based; details: Clostridium perfringens, 81, 27 h
[3] = test system: Clostridium septicum 1128; test: Susceptibility of anaerobic bacterial isolates, agar dilution; format: cell-based; details: 27 hours incubation
[4] = test system: Eubacterium aerofaciens 1235; test: as above; format: cell-based; details: Collinsella aerofaciens, 27 hours incubation
[5] = test system: Peptococcus asaccharolyticus 1302; test: as above; format: cell-based; details: Peptoniphilus asaccharolyticus, 27 hours incubation
Peptococcus prevoti 1281 = test: as above; format: cell-based; details: 27 hours incubation
[6] = test system: Peptostreptococcus anaerobius 1428; test: as above; format: cell-based; details: 27 hours incubation
[7] = test system: Peptostreptococcus intermedium 1264; test: as above; format: cell-based; details: 27 hours incubation
[8] = test system: Propionibacterium acnes 79; test: as above; format: cell-based; details: Cutibacterium acnes, 27 hours incubation
[9] = test system: Bacteroides fragilis spp. fragilis 111; test: as above; format: cell-based; details: 27 hours incubation
[10] = test system: Bacteroides fragilis ssp. fragilis 1877; test: as above; format: cell-based; details: 27 hours incubation
[11] = test system: Bacteroides fragilis ssp. fragilis 1936B; test: as above; format: cell-based; details: 27 hours incubation
[12] = test system: Bacteroides fragilis ssp. thetaiotaoimicron 1438; test: as above; format: cell-based; details: 27 hours incubation
[13] = test system: Bacteroides melaninogenicus 1856/28; test: as above; format: cell-based; details: Prevotella intermedia, 27 hours incubation
[14] = test system: Bacteroides melaninogenicus 2736; test: as above; format: cell-based; details: 27 hours incubation
[15] = test system: Bacteroides vulgatis 1211; test: as above; format: cell-based; details: 27 hours incubation
[16] = test system: Bacteroides corrodens 1874; test: as above; format: cell-based; details: Eikenella corrodens, 27 hours incubation
[17] = test system: Fusobacterium symbiosum 1470; test: as above; format: cell-based; details: 27 hours incubation
[18] = test system: Fusobacterium necrophorum 6054A; test: as above; format: cell-based; details: 27 hours incubation
S. Aureus (3 strains) = test: Disc-plate test; details: Staphylococcus aureus, read-out: Disc-Plate Zone Sizes
S. pyogenes C203 [19] = test: Disc-plate test; details: Streptococcus pyogenes, C203, read-out: Disc-Plate Zone Sizes
Group D Streptococcus = test: Disc-plate test; details: read-out: Disc-Plate Zone Sizes
S. pneumoniae I [20] = test: Disc-plate test; details: Streptococcus pneumoniae, read-out: Disc-Plate Zone Sizes
E. coli Ec-14 = test: Disc-plate test; details: Escherichia coli, EC14, read-out: Disc-Plate Zone Sizes
P rettgeri PR-2 = test: Disc-plate test; details: read-out: Disc-Plate Zone Sizes
K. pneumoniae KL-14 = test: Disc-plate test; details: Klebsiella pneumoniae, KL14, read-out: Disc-Plate Zone Sizes
S. typhosa SA-12 = test: Disc-plate test; details: read-out: Disc-Plate Zone Sizes
S. aureus 3.55 = test: Agar-dilution test; details: Staphylococcus aureus
S. aureus 3074 = test: Agar-dilution test; details: Staphylococcus aureus
S. faecalis X-66 = test: Agar-dilution test; details: Enterococcus faecalis, X66
S. aureus 3055 = test: Therapy in experimental mouse infections; details: Staphylococcus aureus, 3055, in Mus musculus
S. pyogenes C203 [21] = test: Therapy in experimental mouse infections; details: Streptococcus pyogenes
S. pneumoniae I [22] = test: Therapy in experimental mouse infections; details: Streptococcus pneumoniae
gram positive bacteria = test: Antibacterial activity in standard test procedures

## CCC1OC(=O)CC(O)C(C)C(OC2OC(C)C(OC3CCC(O)C(C)O3)C(N(C)C)C2O)C(CCO)CC(C)C(=O)C=CC2(C)OC2C1C (stereo not shown)
[1]
  MIC: 8 µg/mL (≈ 11.2 µM)
[2]
  MIC: 16 µg/mL (≈ 22.4 µM)
[3]
  MIC: 16 µg/mL (≈ 22.4 µM)
[4]
  MIC: 8 µg/mL (≈ 11.2 µM)
[5]
  MIC: 8 µg/mL (≈ 11.2 µM)
Peptococcus prevoti 1281
  MIC: > 64 µg/mL
[6]
  MIC: 16 µg/mL (≈ 22.4 µM)
[7]
  MIC: 8 µg/mL (≈ 11.2 µM)
[8]
  MIC: 1 µg/mL (≈ 1.4 µM)
[9]
  MIC: 64 µg/mL (≈ 89.6 µM)
[10]
  MIC: 64 µg/mL (≈ 89.6 µM)
[11]
  MIC: 64 µg/mL (≈ 89.6 µM)
[12]
  MIC: 16 µg/mL (≈ 22.4 µM)
[13]
  MIC: 64 µg/mL (≈ 89.6 µM)
[14]
  MIC: 64 µg/mL (≈ 89.6 µM)
[15]
  MIC: 32 µg/mL (≈ 44.8 µM)
[16]
  MIC: 32 µg/mL (≈ 44.8 µM)
[17]
  MIC: 128 µg/mL (≈ 179 µM)
[18]
  MIC: 128 µg/mL (≈ 179 µM)
S. Aureus (3 strains)
  zone of inhibition at 300 µg/disc: 27 mm
S. pyogenes C203 [19]
  zone of inhibition at 300 µg/disc: 24.2 mm
Group D Streptococcus
  zone of inhibition at 300 µg/disc: 22.5 mm
S. pneumoniae I [20]
  zone of inhibition at 300 µg/disc: 36 mm
E. coli Ec-14
  zone of inhibition at 300 µg/disc: 14 mm
P rettgeri PR-2
  zone of inhibition at 300 µg/disc: 8.6 mm
K. pneumoniae KL-14
  zone of inhibition at 300 µg/disc: 11.3 mm
S. typhosa SA-12
  zone of inhibition at 300 µg/disc: 8.8 mm
S. aureus 3.55
  MIC: 32 µg/mL (≈ 44.8 µM)
S. aureus 3074
  MIC: > 128 µg/mL
S. faecalis X-66
  MIC: 16 µg/mL (≈ 22.4 µM)
S. aureus 3055
  ED50: > 70 mg/kg
S. pyogenes C203 [21]
  ED50: > 70 mg/kg
S. pneumoniae I [22]
  ED50: > 70 mg/kg
Gram positive bacteria
  antibacterial activity: exhibit antibacterial activity, particularly against gram positive bacteria
